Measured values: patent publication US10188650B2, “Treatment of neurological disorders” (THE REGENTS OF THE UNIVERSITY OF MICHIGAN, priority 2014, dated 2019)
“Also recorded” adds a separate entry of the source.

How the values were obtained:
[1] = biological target: P-glycoprotein (Homo sapiens, UniProt P08183); settings: cited from earlier work
[2] = pediatric patient studies; cited from earlier work
[3] = biological target: T1, Drosophila Abl (Drosophila melanogaster, UniProt P00522); assay: Abl activity in Schneider 2 cells expressing Drosophila Abl, western blot with anti-phospho-Y412-Abl antibody; format: cell-based; settings: nilotinib 5 μM, 6 hours, S2 cells expressing Drosophila Abl
T1 construct: the full-length cDNA of Drosophila Abl was obtained by ligating two fragments; Myc; expressed in transfected cells; host or cells: Drosophila Schneider 2 (S2) cells
T1 sequence (P00522 whole entry, the tested form may be a part): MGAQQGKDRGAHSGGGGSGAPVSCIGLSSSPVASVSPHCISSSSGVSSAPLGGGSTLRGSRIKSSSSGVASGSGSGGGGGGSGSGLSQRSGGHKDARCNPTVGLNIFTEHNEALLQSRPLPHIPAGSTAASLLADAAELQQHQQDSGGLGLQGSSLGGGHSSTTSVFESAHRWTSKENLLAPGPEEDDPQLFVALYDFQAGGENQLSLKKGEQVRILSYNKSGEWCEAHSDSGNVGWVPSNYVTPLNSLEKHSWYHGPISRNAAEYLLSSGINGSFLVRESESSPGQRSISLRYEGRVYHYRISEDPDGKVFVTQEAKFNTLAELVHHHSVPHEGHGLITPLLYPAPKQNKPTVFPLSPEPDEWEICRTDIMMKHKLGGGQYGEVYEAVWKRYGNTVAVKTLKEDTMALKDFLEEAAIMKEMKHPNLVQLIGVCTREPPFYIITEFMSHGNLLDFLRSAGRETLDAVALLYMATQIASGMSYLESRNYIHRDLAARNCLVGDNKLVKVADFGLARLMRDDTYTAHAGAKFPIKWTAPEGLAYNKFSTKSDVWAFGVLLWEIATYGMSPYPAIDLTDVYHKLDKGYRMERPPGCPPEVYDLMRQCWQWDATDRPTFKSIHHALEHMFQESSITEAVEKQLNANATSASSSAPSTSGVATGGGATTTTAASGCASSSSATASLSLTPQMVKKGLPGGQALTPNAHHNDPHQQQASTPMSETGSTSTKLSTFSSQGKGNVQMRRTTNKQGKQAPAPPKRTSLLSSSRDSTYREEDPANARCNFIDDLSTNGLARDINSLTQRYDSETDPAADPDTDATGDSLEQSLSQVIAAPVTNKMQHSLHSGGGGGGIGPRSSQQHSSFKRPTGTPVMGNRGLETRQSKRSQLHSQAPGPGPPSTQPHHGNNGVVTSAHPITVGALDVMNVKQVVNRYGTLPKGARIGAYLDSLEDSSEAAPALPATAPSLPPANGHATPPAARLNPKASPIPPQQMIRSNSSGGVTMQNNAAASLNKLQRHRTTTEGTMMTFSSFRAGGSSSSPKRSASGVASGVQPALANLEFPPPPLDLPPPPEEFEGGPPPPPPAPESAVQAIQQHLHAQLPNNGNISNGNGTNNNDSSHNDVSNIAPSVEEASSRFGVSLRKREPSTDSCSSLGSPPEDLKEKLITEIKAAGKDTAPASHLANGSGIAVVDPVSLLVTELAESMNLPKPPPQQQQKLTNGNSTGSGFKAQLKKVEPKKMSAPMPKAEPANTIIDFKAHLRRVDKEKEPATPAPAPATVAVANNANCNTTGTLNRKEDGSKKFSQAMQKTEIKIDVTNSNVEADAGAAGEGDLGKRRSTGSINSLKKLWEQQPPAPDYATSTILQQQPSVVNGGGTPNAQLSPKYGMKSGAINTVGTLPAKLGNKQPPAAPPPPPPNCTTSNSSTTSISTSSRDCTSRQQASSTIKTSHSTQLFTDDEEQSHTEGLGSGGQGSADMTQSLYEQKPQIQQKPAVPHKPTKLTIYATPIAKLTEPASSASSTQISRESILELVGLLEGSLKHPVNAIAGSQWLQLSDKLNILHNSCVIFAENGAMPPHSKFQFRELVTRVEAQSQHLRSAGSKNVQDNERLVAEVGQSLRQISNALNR
Protocol: Abl activity was assessed by western blotting analysis with an anti-phospho-Y412-Abl antibody.
Drosophila Schneider 2 cells were maintained in Drosophila Schneider's medium (Life Technologies) supplemented with 10% fetal bovine serum (Sigma-Aldrich, St. Louis, Mo.) in a humidified atmosphere at 26° C. Cells grown on tissue culture plates were transfected with Lipofectamine 2000 (Life Technologies) according to manufacturer's recommendation. Cells were harvested two days after transfection, lysed in SDS sample buffer, and subjected to western blot analysis. In some experiments, cells were transfected with indicated DNA constructs together with tubulin-Gal4 (Lee and Luo, 2001) by using Lipofectamine 2000 (Invitrogen) according to manufacturer's protocol.
Western blot analysis was performed as follows.
(§1) Sample preparation, imaging, and quantification were then completed as described above.
During the development of embodiments of the technology provided herein, experiments were performed to assess the effects of Abl kinase inhibitors on Dscam-induced axonal overgrowth. […] Abl activity was assessed by western blotting analysis with an anti-phospho-Y412-Abl antibody.

[4] = system: C4da neurons overexpressing Dscam; assay: Axon terminal overgrowth induced by Dscam overexpression in single C4da neurons (MARCM), larvae fed drug; format: in vivo, Drosophila; settings: larvae reared in food containing 380 μM nilotinib (figure legend: 0.4 mM), 4 days
Source text: The genetic technique MARCM was used to express the Dscam transgene in single C4da neurons and to label the morphology of the axon terminals.
The MARCM technique was used to generate and label C4da neurons homozygous for abl^1 or abl^4 mutations and C4da neurons overexpressing Dscam[TM2]:GFP.
Antibodies used include chicken anti-GFP (Ayes) and rabbit anti-RFP (Rockland). Samples were dehydrated and mounted with DPX mounting media (Electron Microscopy Sciences). Confocal imaging was completed with a Leica SP5 confocal system equipped with a resonant scanner and 63× oil-immersion lens (NA=1.40).
as §1
In particular, the genetic mosaic analysis MARCM was used to express the Dscam transgene in single C4da neurons and to label the morphology of the axon terminals. […] Expression of Dscam transgene was achieved by the C4da-specific driver ppk-Gal4 and UAS-Dscam::GFP transgenes. […] Dscam expression levels (GFP intensity) were measured from the C4da neuron cell body.

[5] = system: dFMRP mutant C4da neurons; assay: Axon terminal overgrowth in dFMRP mutants (Fragile X Syndrome model), larvae fed drug; format: in vivo, Drosophila; settings: larvae raised with nilotinib 4 days; vehicle-fed mutants 130%
Source text: The MARCM technique was used to generate and visualize single axon terminals of mutant C4da neurons. […] FIG. 10c summarizes the data from FIG. 6, FIG. 10A and FIG. 10B relating to quantification of the axon terminal length of the indicated genotype and drug treatment. […] Scale bar is 10 μm. Two-way Student's t-test was used for statistical analysis. *: p<0.05; **: p<0.01; ***: p<0.001; ****; p<0.0001.
The MARCM technique was used to generate and label C4da neurons homozygous for abl^1 or abl^4 mutations and C4da neurons overexpressing Dscam[TM2]:GFP. MARCM clones were induced as previously described in Ye et al. (2011) Journal of Neuroscience 31: 3309-3319. Confocal images were collected and analyzed as described in Kim et al. (2013) Neuron 78: 827-838. The MARCM technique was used to visualize single neurons homozygous for abl^1, abl^4, or dFMRP^Δ50 and overexpressing Dscam[3.36.25.2]:GFP as previously described (Kim, et al., 2013).
as §1
Fragile X Syndrome (FXS) is caused by an absence of Fragile X mental retardation protein (FMRP) (Kremer, et al. (1991) Science 252: 1711-14), and is modeled in Drosophila using loss-of-function mutants for the Drosophila homolog of […], dFMRP (Zhang, et al. (2001) Cell 107:591-603; Dockendorff, et al. (2002) Neuron 34: 973-84).

[6] = Human pharmacokinetics; format: in vivo; settings: estimated
[7] = human, oral capsule; cited from earlier work
[8] = biological target: T2, OCT1 (Homo sapiens, UniProt O15245); settings: entry into cell cytoplasm; cited from earlier work
T2 sequence (O15245 1-554): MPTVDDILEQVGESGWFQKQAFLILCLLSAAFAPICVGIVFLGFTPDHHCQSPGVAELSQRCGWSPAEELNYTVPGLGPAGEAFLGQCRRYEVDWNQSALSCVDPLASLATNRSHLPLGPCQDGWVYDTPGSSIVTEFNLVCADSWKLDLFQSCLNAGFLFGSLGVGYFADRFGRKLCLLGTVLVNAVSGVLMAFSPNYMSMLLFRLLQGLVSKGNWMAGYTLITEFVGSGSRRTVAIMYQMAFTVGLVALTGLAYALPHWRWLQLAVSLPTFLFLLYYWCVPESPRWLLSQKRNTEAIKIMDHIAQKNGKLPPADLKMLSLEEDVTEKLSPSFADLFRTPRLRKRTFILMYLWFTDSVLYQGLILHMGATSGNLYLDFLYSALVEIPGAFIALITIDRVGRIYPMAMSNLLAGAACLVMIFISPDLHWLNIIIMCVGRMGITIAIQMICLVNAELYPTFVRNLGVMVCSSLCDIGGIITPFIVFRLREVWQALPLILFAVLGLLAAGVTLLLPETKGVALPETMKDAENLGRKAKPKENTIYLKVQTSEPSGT

P-glycoprotein, sequence (P08183 whole entry): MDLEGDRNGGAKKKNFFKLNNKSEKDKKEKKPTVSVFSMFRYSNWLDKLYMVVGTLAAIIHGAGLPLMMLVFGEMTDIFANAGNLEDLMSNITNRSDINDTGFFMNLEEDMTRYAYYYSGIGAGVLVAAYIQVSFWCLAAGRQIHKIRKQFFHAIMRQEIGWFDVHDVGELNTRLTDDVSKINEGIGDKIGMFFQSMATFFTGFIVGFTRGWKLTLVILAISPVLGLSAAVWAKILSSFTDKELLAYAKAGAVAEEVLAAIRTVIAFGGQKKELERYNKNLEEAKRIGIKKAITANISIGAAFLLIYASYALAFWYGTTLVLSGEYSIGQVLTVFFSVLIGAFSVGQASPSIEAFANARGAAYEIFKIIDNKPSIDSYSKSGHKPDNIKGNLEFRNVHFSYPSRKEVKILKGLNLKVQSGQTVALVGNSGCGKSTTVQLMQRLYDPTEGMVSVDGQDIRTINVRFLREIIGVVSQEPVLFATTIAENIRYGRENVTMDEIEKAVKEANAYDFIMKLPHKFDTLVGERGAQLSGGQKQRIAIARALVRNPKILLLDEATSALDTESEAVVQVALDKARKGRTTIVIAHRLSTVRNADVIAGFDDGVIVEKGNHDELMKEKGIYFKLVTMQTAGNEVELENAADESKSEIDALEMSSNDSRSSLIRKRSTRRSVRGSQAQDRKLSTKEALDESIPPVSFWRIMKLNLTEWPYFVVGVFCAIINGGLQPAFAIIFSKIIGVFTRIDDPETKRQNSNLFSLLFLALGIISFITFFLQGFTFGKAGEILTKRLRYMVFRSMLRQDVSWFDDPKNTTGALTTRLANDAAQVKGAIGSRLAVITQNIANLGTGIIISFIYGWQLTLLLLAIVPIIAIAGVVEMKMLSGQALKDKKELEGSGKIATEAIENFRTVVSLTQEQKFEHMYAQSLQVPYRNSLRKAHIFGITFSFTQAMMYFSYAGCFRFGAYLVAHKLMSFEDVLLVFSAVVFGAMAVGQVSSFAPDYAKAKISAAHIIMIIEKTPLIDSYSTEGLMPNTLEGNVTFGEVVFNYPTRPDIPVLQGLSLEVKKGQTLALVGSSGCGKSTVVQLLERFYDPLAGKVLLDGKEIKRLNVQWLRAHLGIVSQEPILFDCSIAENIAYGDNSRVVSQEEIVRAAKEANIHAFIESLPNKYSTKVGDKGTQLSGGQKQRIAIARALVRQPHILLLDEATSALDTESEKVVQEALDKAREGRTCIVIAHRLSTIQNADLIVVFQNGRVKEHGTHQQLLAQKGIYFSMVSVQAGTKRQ

Row | Compound | substrate for the efflux transporter P-glycoprotein pump [1] | tolerance in children [2] | Abl activity (phospho-Y412-Abl) [3] | Dscam-induced axon terminal overgrowth [4] | axon terminal length in dFMRP mutants [5] | concentration in a human [6] | bioavailability [7] | influx dependent on OCT1 [8]
1 | Cc1nc(Nc2ncc(C(=O)Nc3c(C)cccc3Cl)s2)cc(N2CCN(CCO)CC2)n1 [Dasatinib] | not a substrate | good tolerance |  |  |  |  |  | 
2 | Cc1ccc(NC(=O)c2ccc(CN3CCN(C)CC3)cc2)cc1Nc1nccc(-c2cccnc2)n1 [imatinib] | substrate |  |  |  |  |  |  | 
3 | Cc1cn(-c2cc(NC(=O)c3ccc(C)c(Nc4nccc(-c5cccnc5)n4)c3)cc(C(F)(F)F)c2)cn1 [nilotinib, 4-methyl-N-[3-(4-methyl-1-H-imidazol-1-yl)-5-(trifluoromethyl)phenyl]-3-[(4-pyridin-3-ylpyrimidin-2-yl)amino]benzamide] | not a substrate |  | completely suppressed | nearly completely suppressed; also recorded: suppresses axon terminal overgrowth | 103 % of control | approximately 1.3 μmol/liter | approximately 30% | is not
